20 compounds from patent US11485731B2, “Compounds and methods useful in the treatment of a PRMT5-mediated disorder” (ARGONAUT THERAPEUTICS LIMITED, priority 2017, dated 2022) can be followed below.

Chain of human PRMT5/MEP50 (O14744 whole entry): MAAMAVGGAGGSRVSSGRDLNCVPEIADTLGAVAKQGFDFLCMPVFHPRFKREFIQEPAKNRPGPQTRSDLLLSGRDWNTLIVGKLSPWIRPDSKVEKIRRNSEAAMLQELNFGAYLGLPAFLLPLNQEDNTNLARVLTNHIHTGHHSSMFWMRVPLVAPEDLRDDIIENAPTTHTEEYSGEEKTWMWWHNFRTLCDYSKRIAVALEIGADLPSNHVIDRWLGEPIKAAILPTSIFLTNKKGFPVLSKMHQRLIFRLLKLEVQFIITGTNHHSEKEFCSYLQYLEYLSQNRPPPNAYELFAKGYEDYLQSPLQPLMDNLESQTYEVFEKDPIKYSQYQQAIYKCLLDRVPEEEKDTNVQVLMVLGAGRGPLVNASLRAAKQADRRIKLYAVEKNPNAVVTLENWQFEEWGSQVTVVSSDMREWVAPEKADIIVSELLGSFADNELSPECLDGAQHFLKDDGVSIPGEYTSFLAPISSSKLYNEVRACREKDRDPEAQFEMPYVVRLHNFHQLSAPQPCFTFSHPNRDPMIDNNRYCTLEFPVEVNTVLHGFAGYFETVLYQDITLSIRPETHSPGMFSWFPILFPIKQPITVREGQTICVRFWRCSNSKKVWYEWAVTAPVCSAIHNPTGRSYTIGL
Chain of human PRMT5/MEP50 (Q9BQA1 whole entry partner): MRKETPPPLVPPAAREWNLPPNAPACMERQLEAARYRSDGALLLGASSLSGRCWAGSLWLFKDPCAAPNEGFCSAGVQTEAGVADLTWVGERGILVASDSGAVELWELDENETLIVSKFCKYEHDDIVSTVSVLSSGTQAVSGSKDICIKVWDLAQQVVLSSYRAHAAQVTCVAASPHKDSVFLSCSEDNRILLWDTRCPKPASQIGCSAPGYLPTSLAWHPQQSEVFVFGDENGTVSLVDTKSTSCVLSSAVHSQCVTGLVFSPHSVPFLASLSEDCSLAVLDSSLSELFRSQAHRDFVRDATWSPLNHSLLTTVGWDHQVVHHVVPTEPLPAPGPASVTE

This test has as its target human PRMT5/MEP50 (Homo sapiens (Human), UniProt O14744). Briefly: PRMT5 chemiluminescent assay. As to conditions: human PRMT5/MEP50 expressed in HEK293 cells; biotinylated histone peptides; Histone H4 monomethyl R3 antibody; chemiluminescent readout. The class given is biochemical. How it is done:
A PRMT5 chemiluminescent assay was used to measure the IC50 activity of PRMT5 of the compounds of Examples 1A to 7 above. Biotinylated histone peptides were synthesized and attached to 384-well plates. Compound serial dilutions were performed and added to the assay plate. Histone H4 monomethyl R3 antibody was obtained from Abcam. A master mix for each well was prepared and human PRMT5/MEP50 (expressed in HEK293 cells) diluted in assay buffer to a concentration of 5 ng/μL. The reaction was incubated and slowly rotated for 60 minutes at the point of PRMT5/MEP50 addition. The supernatant from the wells was removed and blocking buffer was added to each well and rotated for 10 minutes. The primary antibody was diluted and added to every well for 60 minutes, before it was removed and the wells washed. The horse raddish peroxidase (HRP)-coupled secondary antibody was diluted and added to each well with an incubation time of 30 minutes. The HRP chemiluminescent substrate was added to every well. The plate was read on a Flourstar Omega BMG Labtech instrument (Ortenberg, Germany) and the analysis of IC50 was performed using the Flourstar Omega BMG Labtech software.
In the case of `O=C(NC[C@H](O)CN1CCc2ccccc2C1)N1CCC[C@@H](c2ccccc2)C1` (single isomer, unassigned) [Example 5A, (S)-N-((S)-3-(3,4-dihydroisoquinolin-2(1H)-yl)-2-hydroxypropyl)-3-phenylpiperidine-1-carboxamide or (R)-N-((S)-3-(3,4-dihydroisoquinolin-2(1H)-yl)-2-hydroxypropyl)-3-phenylpiperidine-1-carboxamide], half-maximal inhibition (IC50) required 26 nM.
The value for `O=C(NC[C@H](O)CN1CCc2ccccc2C1)N1CCC[C@@H](c2ccccc2)C1` (single isomer, unassigned) [Example 5B, (S)-N-((S)-3-(3,4-dihydroisoquinolin-2(1H)-yl)-2-hydroxypropyl)-3-phenylpiperidine-1-carboxamide or (R)-N-((S)-3-(3,4-dihydroisoquinolin-2(1H)-yl)-2-hydroxypropyl)-3-phenylpiperidine-1-carboxamide] was 599 nM.
In the case of `O=C(NC[C@H](O)CN1CCc2ccccc2C1)N1CCS[C@@H](c2ccccc2)C1` (single isomer, unassigned) [Example 5C, (S)-N-((S)-3-(3,4-dihydroisoquinolin-2(1H)-yl)-2-hydroxypropyl)-2-phenylthiomorpholine-4-carboxamide or (R)-N-((S)-3-(3,4-dihydroisoquinolin-2(1H)-yl)-2-hydroxypropyl)-2-phenylthiomorpholine-4-carboxamide], it took 17 nM to reach half-maximal inhibition (IC50).
As to `O=C(NC[C@H](O)CN1CCc2ccccc2C1)N1CCS[C@@H](c2ccccc2)C1` (single isomer, unassigned) [Example 5D, (S)-N-((S)-3-(3,4-dihydroisoquinolin-2(1H)-yl)-2-hydroxypropyl)-2-phenylthiomorpholine-4-carboxamide or (R)-N-((S)-3-(3,4-dihydroisoquinolin-2(1H)-yl)-2-hydroxypropyl)-2-phenylthiomorpholine-4-carboxamide], half-maximal inhibition (IC50) required 101 nM.
The value for `O=C(NC[C@H](O)CN1CCc2ccccc2C1)N1CCC[C@H](c2ccccn2)C1` (single isomer, unassigned) [Example 5E, (S)-N-((S)-3-(3,4-dihydroisoquinolin-2(1H)-yl)-2-hydroxypropyl)-3-(pyridin-2-yl)piperidine-1-carboxamide or (R)-N-((S)-3-(3,4-dihydroisoquinolin-2(1H)-yl)-2-hydroxypropyl)-3-(pyridin-2-yl)piperidine-1-carboxamide] was 81 nM.
The value for `O=C(NC[C@H](O)CN1CCc2ccccc2C1)N1CCC[C@H](c2ccccn2)C1` (single isomer, unassigned) [Example 5F, (S)-N-((S)-3-(3,4-dihydroisoquinolin-2(1H)-yl)-2-hydroxypropyl)-3-(pyridin-2-yl)piperidine-1-carboxamide or (R)-N-((S)-3-(3,4-dihydroisoquinolin-2(1H)-yl)-2-hydroxypropyl)-3-(pyridin-2-yl)piperidine-1-carboxamide] was 97 nM; that for `O=C(NC[C@H](O)CN1CCc2ccccc2C1)N1CCC[C@H](C2CCOCC2)C1` (single isomer, unassigned) [Example 5G, (R)-N-((S)-3-(3,4-dihydroisoquinolin-2(1H)-yl)-2-hydroxypropyl)-3-(tetrahydro-2H-pyran-4-yl)piperidine-1-carboxamide compound or (S)-N-((S)-3-(3,4-dihydroisoquinolin-2(1H)-yl)-2-hydroxypropyl)-3-(tetrahydro-2H-pyran-4-yl)piperidine-1-carboxamide] was 394 nM.
The value for `O=C(NC[C@H](O)CN1CCc2ccccc2C1)N1CCC[C@H](C2CCOCC2)C1` (single isomer, unassigned) [Example 5H, (R)-N-((S)-3-(3,4-dihydroisoquinolin-2(1H)-yl)-2-hydroxypropyl)-3-(tetrahydro-2H-pyran-4-yl)piperidine-1-carboxamide compound or (S)-N-((S)-3-(3,4-dihydroisoquinolin-2(1H)-yl)-2-hydroxypropyl)-3-(tetrahydro-2H-pyran-4-yl)piperidine-1-carboxamide] was 511 nM; that for `O=C(NCC(O)CN1CCc2ccccc2C1)N1CCC(c2ccccc2)C1` (centres unmarked) [Example 1A, N-(3-(3,4-dihydroisoquinolin-2(1H)-yl)-2-hydroxypropyl)-3-phenylpyrrolidine-1-carboxamide] was 290 nM; that for `O=C(NCC(O)CN1CCc2sccc2C1)N1CCc2ccccc2C1` (centres unmarked) [Example 1AA, N-(3-(6,7-dihydrothieno[3,2-c]pyridin-5(4H)-yl)-2-hydroxypropyl)-3,4-dihydroisoquinoline-2(1H)-carboxamide] was 342 nM.
In the case of `O=C(NCC(O)CN1CCc2sccc2C1)N1CCCC(c2ccccc2)C1` (centres unmarked) [Example 1AC, N-(3-(6,7-dihydrothieno[3,2-c]pyridin-5(4H)-yl)-2-hydroxypropyl)-3-phenylpiperidine-1-carboxamide], the IC50 (in general, the concentration that inhibits the measured activity by half) worked out at 384 nM.
As for `O=C(NCC(O)CN1CCc2ccsc2C1)N1CCCC(c2ccccc2)C1` (centres unmarked) [Example 1AD, N-(3-(4,7-dihydrothieno[2,3-c]pyridin-6(5H)-yl)-2-hydroxypropyl)-3-phenylpiperidine-1-carboxamide], the figure is 652 nM; as for `O=C(NCC(O)CN1CCc2sccc2C1)N1CCC(c2ccccc2)C1` (centres unmarked) [Example 1AE, N-(3-(6,7-dihydrothieno[3,2-c]pyridin-5(4H)-yl)-2-hydroxypropyl)-3-phenylpyrrolidine-1-carboxamide], 72 nM; as for `O=C(NC[C@H](O)CN1CCc2ccccc2C1)N1CCCC(c2ccccc2)C1` (stereo partly drawn) [Example 1AG, (S)-N-((S)-3-(3,4-dihydroisoquinolin-2(1H)-yl)-2-hydroxypropyl)-3-phenylpiperidine-1-carboxamide], 185 nM.
As for `O=C(NC[C@@H](O)CN1CCc2ccccc2C1)N1CCC[C@@H](c2ccccc2)C1` [Example 1AI, (S)-N-((R)-3-(3,4-dihydroisoquinolin-2(1H)-yl)-2-hydroxypropyl)-3-phenylpiperidine-1-carboxamide], the figure is 3220 nM; as for `O=C(NC[C@H](O)CN1CCc2ccccc2C1)N1CCCc2ccccc21` [Example 1AJ, (S)-N-(3-(3,4-dihydroisoquinolin-2(1H)-yl)-2-hydroxypropyl)-3,4-dihydroquinoline-1(2H)-carboxamide], 80 nM.
As for `O=C(NC[C@@H](O)CN1CCc2ccccc2C1)N1CCCc2ccccc21` [Example 1AK, (R)-N-(3-(3,4-dihydroisoquinolin-2(1H)-yl)-2-hydroxypropyl)-3,4-dihydroquinoline-1(2H)-carboxamide], the figure is 5980 nM.
For the compound `O=C(NC[C@H](O)CN1CCc2ccccc2C1)N1CCc2ccccc2C1` [Example 1AL, (S)-N-(3-(3,4-dihydroisoquinolin-2(1H)-yl)-2-hydroxypropyl)-3,4-dihydroisoquinoline-2(1H)-carboxamide], the IC50 worked out at 30 nM.
In turn, `O=C(NC[C@@H](O)CN1CCc2ccccc2C1)N1CCc2ccccc2C1` [Example 1AM, (R)-N-(3-(3,4-dihydroisoquinolin-2(1H)-yl)-2-hydroxypropyl)-3,4-dihydroisoquinoline-2(1H)-carboxamide] showed an IC50 of 1500 nM.
As for `O=C(NC[C@H](O)CN1CCc2ccccc2C1)N1CCC[C@@H](c2ccccc2)C1` [Example 1AN, (S)-N-((S)-3-(3,4-dihydroisoquinolin-2(1H)-yl)-2-hydroxypropyl)-3-phenylpiperidine-1-carboxamide], the figure is 14 nM.
